Assays:
Shigella flexneri 2a = assay: Open-label Shigella flexneri 2a challenge study; type: in vivo, human; conditions: 13 treated subjects, 200 mg every 8 hours 3 days
clinical = conditions: male, human, in vivo
[1] = Post approval adverse reactions; type: in vivo, human; conditions: post approval use
From the text: Because these reactions are reported voluntarily from a population of unknown size, estimates of frequency cannot be made.

Campylobacter jejuni = assay: Travelers' diarrhea Study 2: fever/blood in stool, Campylobacter jejuni; parameters: species or system human; conditions: in vivo
Protocol: One study was conducted at clinical sites in Mexico, Guatemala, and Kenya (Study 1). The other study was conducted in Mexico, Guatemala, Peru, and India (Study 2). Stool specimens were collected before treatment and 1 to 3 days following the end of treatment to identify enteric pathogens. The predominant pathogen in both studies was Escherichia coli.
The results of Study 2 supported the results presented for Study 1. […] These subjects had lower clinical cure rates than those without fever or blood in the stool at baseline. Many of the patients with fever and/or blood in the stool (dysentery-like diarrheal syndromes) had invasive pathogens, primarily Campylobacter jejuni, isolated in the baseline stool.
In addition to not being different from placebo, the microbiologic eradication rates for subjects with Campylobacter jejuni isolated at baseline were much lower than the eradication rates seen for Escherichia coli.

[2] = human
Protocol: The covariates chosen for the analysis are known indicators of hepatic and renal function. A visual diagnostic was performed to detect potential trends between covariates of interest and AUCτ, Cmax, and CL/F.

dogs = conditions: dog, in vivo
Protocol: However, plasma drug levels were not measured in these studies. […] The maximum plasma AUC0-8 hr values from the 6 month rat and 9 month dog toxicity studies (range: 42-127 ng·h/mL) was lower than the maximum plasma AUC0-8 hr values in cirrhotic patients (range: 19-306 ng·h/mL).

[3] = test system: subjects with a history of recurrent, overt, episodic HE; assay: Second study (3002, open-label extension): breakthrough overt HE; type: in vivo, human
Protocol: Unlike the first study, subjects were not required to withdraw from the study after experiencing a breakthrough overt HE episode.
Conn scores and asterixis grades were assessed during the course of the study.
Therefore, the incidence of breakthrough overt HE over time during rifaximin therapy was evaluated. Table 24 presents breakthrough overt HE episodes by total number of HE episodes during the course of the study.
Most subjects in the second study (152 of 266) were also in the first study. […] The numbers of overt HE episodes experienced during the 6-month or 12-month intervals prior to the first study or prior to the second study were known.

[4] = test system: liver transplant patients who presented with HE; assay: Chart review of 39 liver transplant patients with HE; type: in vivo, human
P-gp transporter = P-gp transporter (Homo sapiens, UniProt P08183); assay: In vitro P-gp transporter inhibition; type: in vitro ADME; conditions: 50 μM
P-gp transporter, sequence (P08183 whole entry): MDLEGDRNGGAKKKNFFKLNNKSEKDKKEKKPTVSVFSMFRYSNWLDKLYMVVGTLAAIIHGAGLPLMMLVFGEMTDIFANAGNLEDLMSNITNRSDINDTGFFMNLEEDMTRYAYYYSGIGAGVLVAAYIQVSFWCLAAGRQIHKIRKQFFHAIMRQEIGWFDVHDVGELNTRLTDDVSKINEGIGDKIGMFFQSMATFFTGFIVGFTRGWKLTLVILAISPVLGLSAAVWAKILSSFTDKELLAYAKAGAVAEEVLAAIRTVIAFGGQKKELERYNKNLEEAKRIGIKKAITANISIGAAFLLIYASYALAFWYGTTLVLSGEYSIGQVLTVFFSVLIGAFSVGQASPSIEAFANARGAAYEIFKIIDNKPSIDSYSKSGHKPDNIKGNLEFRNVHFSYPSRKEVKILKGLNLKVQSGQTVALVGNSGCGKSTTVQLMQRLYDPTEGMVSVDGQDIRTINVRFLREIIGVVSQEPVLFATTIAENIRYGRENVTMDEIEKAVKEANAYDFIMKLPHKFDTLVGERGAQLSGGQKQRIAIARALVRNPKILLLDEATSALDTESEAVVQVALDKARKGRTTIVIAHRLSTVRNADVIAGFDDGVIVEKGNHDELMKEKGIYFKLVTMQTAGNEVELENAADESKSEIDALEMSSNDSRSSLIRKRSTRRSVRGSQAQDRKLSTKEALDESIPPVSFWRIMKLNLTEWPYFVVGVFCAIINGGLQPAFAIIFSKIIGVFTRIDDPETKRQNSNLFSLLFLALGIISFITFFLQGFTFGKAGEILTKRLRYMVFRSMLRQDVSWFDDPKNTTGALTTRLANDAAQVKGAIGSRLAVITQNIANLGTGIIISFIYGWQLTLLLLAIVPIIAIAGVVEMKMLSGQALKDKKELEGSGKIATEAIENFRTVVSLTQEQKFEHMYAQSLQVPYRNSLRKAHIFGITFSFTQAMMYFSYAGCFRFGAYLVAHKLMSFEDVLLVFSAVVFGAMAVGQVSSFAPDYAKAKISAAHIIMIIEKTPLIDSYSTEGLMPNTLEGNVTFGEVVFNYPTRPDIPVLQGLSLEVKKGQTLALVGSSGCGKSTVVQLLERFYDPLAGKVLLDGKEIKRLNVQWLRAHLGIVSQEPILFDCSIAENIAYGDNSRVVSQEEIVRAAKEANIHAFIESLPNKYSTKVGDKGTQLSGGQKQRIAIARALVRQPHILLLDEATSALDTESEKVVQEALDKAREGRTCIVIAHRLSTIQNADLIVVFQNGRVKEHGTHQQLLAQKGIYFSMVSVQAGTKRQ

[5] = test system: subjects with a history of recurrent, overt, episodic HE; assay: Second study: hospitalization rates; type: in vivo, human
From the text: Normalizing for subject exposure, this represents a hospitalization rate of 0.60 event/PEY. A total of 59 were hospitalized due HE episodes (e.g., HE-caused). Normalizing for subject exposure, this represents an HE-caused hospitalization rate of 0.29 event/PEY. […] All subjects were capable of worsening over time, and 24/266 subjects (9.0%) did so by 1 or 2 grades.

Tg.rasH2 mice = conditions: Tg.rasH2, mouse, in vivo, 26 weeks
[6] = test system: subjects with a history of recurrent, overt, episodic HE; assay: Second study: changes in Conn scores and asterixis grades; type: in vivo, human; conditions: 266 subjects
[7] = test system: subjects with a history of recurrent, overt, episodic HE; conditions: human, in vivo
From the text: At the time of this interim analysis, TEAEs were reported in 230 subjects (86.5%). The most common TEAEs (e.g., in ≧10% of total subjects) experienced by subjects were the following: peripheral edema (15.8%); urinary tract infection and nausea (12.8% each); and abdominal pain and ascites (10.5% each).
Treatment-emergent SAEs were experienced by 47.4% of subjects.

CO[C@H]1/C=C/O[C@@]2(C)Oc3c(C)c(O)c4c(O)c(c5c(nc6cc(C)ccn65)c4c3C2=O)NC(=O)/C(C)=C\C=C\[C@H](C)[C@H](O)[C@@H](C)[C@@H](O)[C@@H](C)[C@H](OC(C)=O)[C@@H]1C [rifaximin, (2S,16Z,18E,20S,21S,22R,23R,24R,25 S,26S,27S,28E)-5,6,21,23,25-pentahydroxy-27-methoxy-2,4,11,16,20,22,24,26-octamethyl-2,7-(epoxypentadeca-[1,11,13]trienimino)benzofuro[4,5-e]pyrido[1,2-á]-benzimidazole-1,15(2H)-dione,25-acetate]
rescue treatment with ciprofloxacin (Shigella flexneri 2a): eight subjects received rescue treatment | AUC(0-t) (clinical): 19.5 ± 16.5 ng·h/mL | Cmax (clinical): 4.3 ± 2.8 ng/mL | Tmax (clinical): 1.25 h | C. difficile-associated colitis [1]: have been reported | clinical cure rate, Campylobacter jejuni as sole pathogen at baseline (Campylobacter jejuni): 23.5% | effectiveness in travelers' diarrhea due to Campylobacter jejuni (Campylobacter jejuni): not effective | Regression estimate for AUCτ: Albumin [2]: −0.0573 | Regression estimate for AUCτ: INR [2]: −1.7432 | Regression estimate for AUCτ: Intercept [2]: 8.4175 | Regression estimate for AUCτ: Total Bilirubin [2]: 0.0173 | Regression estimate for CL/F: ALT [2]: −0.0028 | Regression estimate for CL/F: Albumin [2]: 0.0783 | Regression estimate for CL/F: INR [2]: 2.5949 | Regression estimate for CL/F: Intercept [2]: −0.8934 | Regression estimate for CL/F: Total Bilirubin [2]: −0.0185 | Regression estimate for Cmax: ALT [2]: 0.0031 | Regression estimate for Cmax: Albumin [2]: −0.0515 | Regression estimate for Cmax: INR [2]: −2.0654 | Regression estimate for Cmax: Intercept [2]: 6.5350 | Regression estimate for Cmax: Total Bilirubin [2]: 0.0207 | toxic effects (dogs): negligible toxic effects | Subjects with ≧1 breakthrough overt HE episode ([3]; All Rifaximin N = 266): 72 (27.1) n (%) | Subjects with ≧1 breakthrough overt HE episode ([3]; Continuing Rifaximin N = 70): 18 (25.7) n (%) | Subjects with ≧1 breakthrough overt HE episode ([3]; New Rifaximin N = 196): 54 (27.6) n (%) | patients free of breakthrough ([3]; after almost 3 years): approximately 60% | subjects with 1 breakthrough HE episode ([3]; all rifaximin): 44 subjects | subjects with 2 breakthrough HE episodes ([3]; all rifaximin): 18 subjects | subjects with 3 or more breakthrough HE episodes ([3]; all rifaximin): Ten | reduction in risk of breakthrough HE, continuing subjects vs 3001 placebo ([3]; in vivo): 90% | subjects with breakthrough overt HE during rifaximin after crossover ([3]; in vivo): 15 of 82 | rate of breakthrough HE episodes adjusted for exposure ([3]; new rifaximin subjects): 0.38 events/PEY | subjects with >2 HE episodes during rifaximin therapy ([3]; up to 840 days, first plus second study): 3.6% | hospitalizations reported ([4]; 15 rifaximin, 24 lactulose patients): 3 | average length of stay ([4]; human, in vivo): 3.5 days | inhibition of transport of a model P-gp substrate (P-gp transporter): only partially inhibited | subjects hospitalized due HE episodes ([5]; in vivo): 59 subjects | subjects hospitalized for any cause ([5]; in vivo): 133 of 266 | HE-caused hospitalization rate ([5]; second study): 0.29 event/PEY | female mice with ruffled fur and hunched appearance (Tg.rasH2 mice): 2/25 | subjects with worsening asterixis by 1, 2, or 4 grades [6]: 6.8% | TEAE abdominal pain [7]: 10.5% | TEAE ascites [7]: 10.5% | TEAE nausea [7]: 12.8% | TEAE peripheral edema [7]: 15.8% | TEAE urinary tract infection [7]: 12.8% | subjects with HE counted for the safety analyses [7]: 21.4% | subjects with TEAEs [7]: 86.5% | subjects with at least 1 severe TEAE [7]: 40.2% | subjects with treatment-emergent SAEs [7]: 47.4%
